Patent US11298314B2, “Injectable composition for localized fat reduction without pain, edema, and side effects, and method for preparing same” (AMI PHARM CO., LTD., priority 2017, dated 2022)

Experiments:
[1] = Formulation stability of PPC injectable preparations: property, transparency, particle size, pH; conditions: for bile acid concentration at which stable injectable preparations can be made: based on PPC 5.0%; for bile acid/PPC molar ratio below which a substantially stable formulation did not occur: PPC 5.0%
paw of the rats = test: Rat paw edema; assay type: in vivo, Sprague Dawley rats; conditions: for degree of edema in words: 2 hours after administration, rat paw; for degree of edema, 1 hour after administration / degree of edema, 2 hours after administration / degree of edema, Immediately after administration: 0.1 ml into rat paw
Method: (§1) To evaluate the degree of edema, each test compositions described above were injected into the paw of the rats. Specifically, male Sprague Dawley rats (6 weeks old) were purchased and used after one week of adaptation. The rats (body weight: 170˜200 g) were randomly selected and the thickness of the rat paw were measured with a caliper before the administration of the test compositions. In order to observe the edema, 0.1 ml of PBS and the various test compositions were administered to the paws of the rats. Measurements of the […] were performed by a caliper immediately before the injection, immediately after the injection, and 1 or 2 hours after the injection. In addition, when the thickness was measured, the skin lesion of the injection site was observed by photographing the sole of the paw (using a 4×4 cm scale).
The degree of edema was evaluated as 0 to 4 grades.

[2] = tested on: tissues of the injected area (rat paw); test: H&E staining histological test (inflammation) of injected rat paw; assay type: in vivo, Sprague Dawley rats; conditions: for Inflammation (H&E), BA % (w/v) 1.0: bile acid single composition 1.0% (w/v); for Inflammation (H&E), BA % (w/v) 1.0 / Inflammation (H&E), BA % (w/v) 2.5 / Inflammation (H&E), BA % (w/v) 5.0: injected rat paw; for Inflammation (H&E), BA % (w/v) 2.5: bile acid single composition 2.5% (w/v); for Inflammation (H&E), BA % (w/v) 5.0: bile acid single composition 5.0% (w/v)
Method: The tissues of the injected area were dissected, fixed with 10% formalin, and then the specimen was prepared and images were captured using an optical microscope. The degree of inflammation was evaluated as follows.

sole of the rat paws = test: Measurement of skin lesion (erythema) on rat paw; assay type: in vivo, Sprague Dawley rats; conditions: for skin lesion (erythema) in words: 2 hours after administration;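 on grade of skin lesion (erythema), 1 hour after administration: grades − to ++++ mean no to extremely severe erythema versus before injection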;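 on grade of skin lesion (erythema), 2 hours after administration: grades − to ++++ mean no to extremely severe erythema versus before injection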;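 on grade of skin lesion (erythema), Immediately after administration: grades − to ++++ mean no to extremely severe erythema versus before injection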
Method: as §1
The grades of skin lesion were evaluated as 0 to 4 grades.

[3] = bile acid single composition 1.0% (w/v)
[4] = bile acid single composition 2.5% (w/v)
[5] = bile acid single composition 5.0% (w/v)
[6] = bile acid single composition 7.5% (w/v)

| Compound | bile acid concentration at which stable injectable preparations can be made [1] [%] | degree of edema, 1 hour after administration (paw of the rats; [3]) | degree of edema, 2 hours after administration (paw of the rats; [3]) | degree of edema, Immediately after administration (paw of the rats; [3]) | degree of edema, 1 hour after administration (paw of the rats; [4]) | degree of edema, 2 hours after administration (paw of the rats; [4]) | degree of edema, Immediately after administration (paw of the rats; [4]) | degree of edema, 1 hour after administration (paw of the rats; [5]) | degree of edema, 2 hours after administration (paw of the rats; [5]) | degree of edema, Immediately after administration (paw of the rats; [5]) | degree of edema, 1 hour after administration (paw of the rats; [6]) | degree of edema, 2 hours after administration (paw of the rats; [6]) | degree of edema, Immediately after administration (paw of the rats; [6]) | Inflammation (H&E), BA % (w/v) 1.0 [2] | bile acid/PPC molar ratio below which a substantially stable formulation did not occur [1] | grade of skin lesion (erythema), 1 hour after administration (sole of the rat paws; [3]) | grade of skin lesion (erythema), 2 hours after administration (sole of the rat paws; [3]) | grade of skin lesion (erythema), 2 hours after administration (sole of the rat paws; [4]) | grade of skin lesion (erythema), 2 hours after administration (sole of the rat paws; [5]) | grade of skin lesion (erythema), 2 hours after administration (sole of the rat paws; [6]) | further results |
| --- | --- | --- | --- | --- | --- | --- | --- | --- | --- | --- | --- | --- | --- | --- | --- | --- | --- | --- | --- | --- | --- |
| C[C@H](CCC(=O)O)[C@H]1CC[C@H]2[C@@H]3[C@H](O)C[C@@H]4C[C@H](O)CC[C@]4(C)[C@H]3C[C@H](O)[C@]12C [CA, (4R)-4-[(3R,5S,7R,8R,9S,10S,12S,13R,14S,17R)-3,7,12-trihydroxy-10,13-dimethyl-2,3,4,5,6,7,8,9,11,12,14,15,16,17-tetradecahydro-1H-cyclopenta[a]phenanthren-17-yl]pentanoic acid] | ≥ 2.2 |  |  |  |  |  |  |  |  |  |  |  |  |  |  |  |  |  |  |  |  |
| C[C@H](CCC(=O)O)[C@H]1CC[C@H]2[C@@H]3[C@@H](O)C[C@@H]4C[C@H](O)CC[C@]4(C)[C@H]3CC[C@]12C [UDCA, (4R)-4-[(3R,5S,7S,8R,9S,10S,13R,14S,17R)-3,7-dihydroxy-10,13-dimethyl-2,3,4,5,6,7,8,9,11,12,14,15,16,17-tetradecahydro-1H-cyclopenta[a]phenanthren-17-yl]pentanoic acid] | ≥ 2.7 | ++ (moderate edema [++, (the degree of swelling was 20-40% compared to before the injection)]) | ++ (moderate edema [++, (the degree of swelling was 20-40% compared to before the injection)]) | ++ (moderate edema [++, (the degree of swelling was 20-40% compared to before the injection)]) | +++ (severe edema [+++, (the degree of swelling was 40-60% compared to before the injection)]) | ++++ (extremely severe edema [++++, (the degree of swelling was 60% or more compared to before the injection)]) | ++ (moderate edema [++, (the degree of swelling was 20-40% compared to before the injection)]) | ++++ (extremely severe edema [++++, (the degree of swelling was 60% or more compared to before the injection)]) | ++++ (extremely severe edema [++++, (the degree of swelling was 60% or more compared to before the injection)]) | ++ (moderate edema [++, (the degree of swelling was 20-40% compared to before the injection)]) | ++++ (extremely severe edema [++++, (the degree of swelling was 60% or more compared to before the injection)]) | ++++ (extremely severe edema [++++, (the degree of swelling was 60% or more compared to before the injection)]) | ++ (moderate edema [++, (the degree of swelling was 20-40% compared to before the injection)]) | +++ | less than 1.12 | ++ | ++ | +++ | ++++ | ++++ | degree of edema in words (paw of the rats; listed as UDCA 1.0%): moderate; degree of edema in words (paw of the rats; listed as UDCA 2.5%): “severe” and “extremely severe”; skin lesion (erythema) in words (sole of the rat paws; listed as UDCA 1.0%): Moderate; skin lesion (erythema) in words (sole of the rat paws; listed as UDCA 2.5%): “severe” and “extremely severe”; grade of skin lesion (erythema), Immediately after administration (sole of the rat paws; [3]): +; grade of skin lesion (erythema), 1 hour after administration (sole of the rat paws; [4]): ++; grade of skin lesion (erythema), Immediately after administration (sole of the rat paws; [4]): ++; grade of skin lesion (erythema), 1 hour after administration (sole of the rat paws; [5]): ++++; grade of skin lesion (erythema), Immediately after administration (sole of the rat paws; [5]): ++; grade of skin lesion (erythema), 1 hour after administration (sole of the rat paws; [6]): ++++; grade of skin lesion (erythema), Immediately after administration (sole of the rat paws; [6]): ++ |
| C[C@H](CCC(=O)O)[C@H]1CC[C@H]2[C@@H]3[C@H](O)C[C@@H]4C[C@H](O)CC[C@]4(C)[C@H]3CC[C@]12C [CDCA] | ≥ 2.2 | +++ (severe edema [+++, (the degree of swelling was 40-60% compared to before the injection)]) | +++ (severe edema [+++, (the degree of swelling was 40-60% compared to before the injection)]) | ++ (moderate edema [++, (the degree of swelling was 20-40% compared to before the injection)]) | +++ (severe edema [+++, (the degree of swelling was 40-60% compared to before the injection)]) | ++++ (extremely severe edema [++++, (the degree of swelling was 60% or more compared to before the injection)]) | ++ (moderate edema [++, (the degree of swelling was 20-40% compared to before the injection)]) | ++++ (extremely severe edema [++++, (the degree of swelling was 60% or more compared to before the injection)]) | ++++ (extremely severe edema [++++, (the degree of swelling was 60% or more compared to before the injection)]) | ++ (moderate edema [++, (the degree of swelling was 20-40% compared to before the injection)]) | ++++ (extremely severe edema [++++, (the degree of swelling was 60% or more compared to before the injection)]) | ++++ (extremely severe edema [++++, (the degree of swelling was 60% or more compared to before the injection)]) | ++ (moderate edema [++, (the degree of swelling was 20-40% compared to before the injection)]) | ++ | less than 0.89 | ++ | ++ | ++++ | ++++ | ++++ | degree of edema in words (paw of the rats; listed as CDCA 1.0%): Moderate; degree of edema in words (paw of the rats; listed as CDCA 2.5%): “severe” and “extremely severe”; Inflammation (H&E), BA % (w/v) 2.5 [2]: +++; Inflammation (H&E), BA % (w/v) 5.0 [2]: +++; degree of inflammation (H&E) in words ([2]; rats sacrificed at 3 hours, injected paw): Moderate; skin lesion (erythema) in words (sole of the rat paws; listed as CDCA 1.0%): Moderate; skin lesion (erythema) in words (sole of the rat paws; listed as CDCA 2.5%): “severe” and “extremely severe”; grade of skin lesion (erythema), Immediately after administration (sole of the rat paws; [3]): +; grade of skin lesion (erythema), 1 hour after administration (sole of the rat paws; [4]): ++++; grade of skin lesion (erythema), Immediately after administration (sole of the rat paws; [4]): ++; grade of skin lesion (erythema), 1 hour after administration (sole of the rat paws; [5]): ++++; grade of skin lesion (erythema), Immediately after administration (sole of the rat paws; [5]): ++; grade of skin lesion (erythema), 1 hour after administration (sole of the rat paws; [6]): ++++; grade of skin lesion (erythema), Immediately after administration (sole of the rat paws; [6]): ++ |
| C[C@H](CCC(=O)NCCS(=O)(=O)O)[C@H]1CC[C@H]2[C@@H]3[C@H](O)C[C@@H]4C[C@H](O)CC[C@]4(C)[C@H]3C[C@H](O)[C@]12C [TCA, 2-[[(4R)-4-[(3R,5S,7R,8R,9S,10S,12S,13R,14S,17R)-3,7,12-trihydroxy-10,13-dimethyl-2,3,4,5,6,7,8,9,11,12,14,15,16,17-tetradecahydro-1H-cyclopenta[a]phenanthren-17-yl]pentanoyl]amino]ethanesulfonic acid] | ≥ 2.5 |  |  |  |  |  |  |  |  |  |  |  |  | + |  |  | − | + | + | ++ | Inflammation (H&E), BA % (w/v) 2.5 [2]: ++; Inflammation (H&E), BA % (w/v) 5.0 [2]: ++ |
